In ChEMBL document CHEMBL5291721, “A preclinical secondary pharmacology resource illuminates target-adverse drug reaction associations of marketed drugs” (Nat Commun, 2023):
Where a SMILES comes first, the peptide text is derived from it. [ ]: non-standard residue; d: D form. pGlu = O=C1CC[C@@H](C(=O)O)N1; Thz = O=C(O)[C@@H]1CSCN1

Key:
[1] = target: T1, Alpha-2C adrenergic receptor (Homo sapiens, UniProt P18825); assay type: functional
T1 sequence (P18825 whole entry): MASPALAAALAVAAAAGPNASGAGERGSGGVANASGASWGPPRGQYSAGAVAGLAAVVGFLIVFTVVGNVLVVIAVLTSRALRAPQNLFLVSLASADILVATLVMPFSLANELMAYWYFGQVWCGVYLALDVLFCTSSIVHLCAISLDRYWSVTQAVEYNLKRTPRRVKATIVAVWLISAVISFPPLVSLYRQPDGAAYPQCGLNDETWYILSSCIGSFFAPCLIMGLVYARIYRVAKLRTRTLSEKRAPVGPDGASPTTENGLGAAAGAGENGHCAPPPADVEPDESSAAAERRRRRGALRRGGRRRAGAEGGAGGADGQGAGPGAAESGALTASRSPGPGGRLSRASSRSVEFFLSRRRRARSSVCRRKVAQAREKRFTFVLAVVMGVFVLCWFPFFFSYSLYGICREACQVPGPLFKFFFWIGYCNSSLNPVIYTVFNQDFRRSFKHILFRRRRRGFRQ

Vasopressin V2 receptor = Vasopressin V2 receptor (Homo sapiens, UniProt P30518)
[2] = target: Growth hormone secretagogue receptor type 1 (Homo sapiens, UniProt Q92847)
[3] = target: 5-hydroxytryptamine receptor 2B (Homo sapiens, UniProt P41595); assay type: functional, cell-based
[4] = target: T2, Neuropeptide Y receptor type 1 (Homo sapiens, UniProt P25929)
T2 sequence (P25929 whole entry): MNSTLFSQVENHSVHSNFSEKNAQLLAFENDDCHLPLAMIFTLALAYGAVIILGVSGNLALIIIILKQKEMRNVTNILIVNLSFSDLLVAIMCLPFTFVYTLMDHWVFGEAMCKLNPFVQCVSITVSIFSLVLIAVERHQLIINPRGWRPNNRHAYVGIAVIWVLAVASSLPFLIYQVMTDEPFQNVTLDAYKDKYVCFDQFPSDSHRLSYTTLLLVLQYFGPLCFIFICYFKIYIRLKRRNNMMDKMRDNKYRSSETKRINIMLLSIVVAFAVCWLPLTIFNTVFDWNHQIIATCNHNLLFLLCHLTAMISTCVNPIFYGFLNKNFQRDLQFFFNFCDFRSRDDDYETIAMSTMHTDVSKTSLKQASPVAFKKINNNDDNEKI

Glucocorticoid receptor = target: T3, Glucocorticoid receptor (Homo sapiens, UniProt P04150)
T3 sequence (P04150 whole entry): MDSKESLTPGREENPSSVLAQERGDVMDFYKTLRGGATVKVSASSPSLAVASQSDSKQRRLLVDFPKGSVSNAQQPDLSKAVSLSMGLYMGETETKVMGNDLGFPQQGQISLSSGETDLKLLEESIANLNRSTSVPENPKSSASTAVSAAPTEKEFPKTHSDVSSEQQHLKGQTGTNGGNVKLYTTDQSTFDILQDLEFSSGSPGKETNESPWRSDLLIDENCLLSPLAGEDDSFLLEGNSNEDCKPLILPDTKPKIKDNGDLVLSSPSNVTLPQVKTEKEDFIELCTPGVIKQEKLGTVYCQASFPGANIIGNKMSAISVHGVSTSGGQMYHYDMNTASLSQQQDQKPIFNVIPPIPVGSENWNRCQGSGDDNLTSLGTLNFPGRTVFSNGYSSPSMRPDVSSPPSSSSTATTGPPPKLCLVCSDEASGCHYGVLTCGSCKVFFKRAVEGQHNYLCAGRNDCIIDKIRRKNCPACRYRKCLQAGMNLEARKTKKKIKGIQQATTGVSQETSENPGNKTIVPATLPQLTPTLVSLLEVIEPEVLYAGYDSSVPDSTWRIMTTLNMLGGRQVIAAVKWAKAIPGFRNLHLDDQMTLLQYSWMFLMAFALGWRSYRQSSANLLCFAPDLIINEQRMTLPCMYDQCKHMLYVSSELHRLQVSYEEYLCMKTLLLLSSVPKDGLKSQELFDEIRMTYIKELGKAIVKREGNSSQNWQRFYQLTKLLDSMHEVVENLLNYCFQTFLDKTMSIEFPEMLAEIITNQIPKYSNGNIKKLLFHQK

[5] = target: Kappa-type opioid receptor (Homo sapiens, UniProt P41145)
Progesterone receptor = target: T4, Progesterone receptor (Homo sapiens, UniProt P06401); assay type: functional
T4 sequence (P06401 whole entry): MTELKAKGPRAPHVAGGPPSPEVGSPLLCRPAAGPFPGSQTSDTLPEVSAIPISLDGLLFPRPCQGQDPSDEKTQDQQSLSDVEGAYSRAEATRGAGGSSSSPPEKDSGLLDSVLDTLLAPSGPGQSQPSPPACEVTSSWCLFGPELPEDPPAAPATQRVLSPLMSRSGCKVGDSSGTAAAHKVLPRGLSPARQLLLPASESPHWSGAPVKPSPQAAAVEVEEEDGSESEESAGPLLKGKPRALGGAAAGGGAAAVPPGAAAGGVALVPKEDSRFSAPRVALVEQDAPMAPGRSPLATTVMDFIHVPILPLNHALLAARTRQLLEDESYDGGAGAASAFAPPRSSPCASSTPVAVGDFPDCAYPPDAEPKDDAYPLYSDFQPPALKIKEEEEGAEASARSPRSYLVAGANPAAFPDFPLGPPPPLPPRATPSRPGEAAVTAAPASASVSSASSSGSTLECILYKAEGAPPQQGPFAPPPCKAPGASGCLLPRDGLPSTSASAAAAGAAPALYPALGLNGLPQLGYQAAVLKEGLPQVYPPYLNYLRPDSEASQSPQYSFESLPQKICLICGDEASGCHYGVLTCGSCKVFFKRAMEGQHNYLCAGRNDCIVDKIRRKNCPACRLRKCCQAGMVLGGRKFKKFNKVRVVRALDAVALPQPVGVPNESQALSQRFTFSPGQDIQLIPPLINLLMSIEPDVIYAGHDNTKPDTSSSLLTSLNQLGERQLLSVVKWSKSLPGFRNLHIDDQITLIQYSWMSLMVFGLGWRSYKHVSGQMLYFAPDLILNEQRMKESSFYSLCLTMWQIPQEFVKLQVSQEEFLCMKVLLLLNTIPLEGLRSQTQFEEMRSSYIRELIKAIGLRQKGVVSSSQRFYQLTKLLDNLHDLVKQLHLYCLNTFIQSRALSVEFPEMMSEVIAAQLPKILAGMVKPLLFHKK

[6] = target: Sodium-dependent noradrenaline transporter (Homo sapiens, UniProt P23975)
[7] = target: cGMP-inhibited 3',5'-cyclic phosphodiesterase 3A (Homo sapiens, UniProt Q14432); assay type: functional
Note: assay procedure not described here.

Chain of cGMP-inhibited 3',5'-cyclic phosphodiesterase 3A (Q14432 whole entry): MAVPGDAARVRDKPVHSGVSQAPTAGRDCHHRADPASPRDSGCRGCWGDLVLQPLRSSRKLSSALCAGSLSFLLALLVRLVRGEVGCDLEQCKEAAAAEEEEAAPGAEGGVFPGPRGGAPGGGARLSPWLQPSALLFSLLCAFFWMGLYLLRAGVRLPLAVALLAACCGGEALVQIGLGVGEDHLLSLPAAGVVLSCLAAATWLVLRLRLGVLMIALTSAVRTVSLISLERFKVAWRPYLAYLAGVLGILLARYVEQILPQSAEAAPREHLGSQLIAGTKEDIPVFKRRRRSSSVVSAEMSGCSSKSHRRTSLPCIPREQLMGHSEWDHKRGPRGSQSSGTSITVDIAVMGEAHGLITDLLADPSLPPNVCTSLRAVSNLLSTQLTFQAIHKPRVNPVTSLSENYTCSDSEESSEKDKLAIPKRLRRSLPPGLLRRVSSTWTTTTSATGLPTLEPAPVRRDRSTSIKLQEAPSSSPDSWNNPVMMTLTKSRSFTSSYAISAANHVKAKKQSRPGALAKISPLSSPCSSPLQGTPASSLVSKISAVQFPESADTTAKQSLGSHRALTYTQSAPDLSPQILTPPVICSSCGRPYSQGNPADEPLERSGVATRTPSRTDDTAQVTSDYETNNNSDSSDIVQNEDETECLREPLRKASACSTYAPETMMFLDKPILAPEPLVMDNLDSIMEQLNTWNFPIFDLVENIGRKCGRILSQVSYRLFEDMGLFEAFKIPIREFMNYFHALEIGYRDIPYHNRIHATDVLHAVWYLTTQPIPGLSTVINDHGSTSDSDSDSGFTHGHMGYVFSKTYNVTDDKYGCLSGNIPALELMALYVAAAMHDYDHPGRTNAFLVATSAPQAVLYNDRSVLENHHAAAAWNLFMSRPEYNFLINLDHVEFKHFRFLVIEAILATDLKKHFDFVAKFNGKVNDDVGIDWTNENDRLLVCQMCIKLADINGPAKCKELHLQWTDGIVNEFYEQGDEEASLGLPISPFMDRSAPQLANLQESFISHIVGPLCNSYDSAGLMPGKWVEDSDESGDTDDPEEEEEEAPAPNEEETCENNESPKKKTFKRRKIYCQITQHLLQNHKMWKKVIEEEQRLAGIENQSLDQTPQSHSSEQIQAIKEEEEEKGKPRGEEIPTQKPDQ
Chain of Vasopressin V2 receptor (P30518 whole entry): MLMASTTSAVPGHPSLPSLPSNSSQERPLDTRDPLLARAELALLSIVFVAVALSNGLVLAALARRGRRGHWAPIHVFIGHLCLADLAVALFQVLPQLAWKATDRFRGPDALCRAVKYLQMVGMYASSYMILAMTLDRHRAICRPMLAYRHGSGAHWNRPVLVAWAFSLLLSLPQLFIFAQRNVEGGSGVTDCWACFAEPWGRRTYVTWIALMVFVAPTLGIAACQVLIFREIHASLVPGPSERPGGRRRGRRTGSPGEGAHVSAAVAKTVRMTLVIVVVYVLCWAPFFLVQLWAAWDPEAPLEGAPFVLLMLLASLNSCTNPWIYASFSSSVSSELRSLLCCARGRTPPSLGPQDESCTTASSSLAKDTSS
Chain of Sodium-dependent noradrenaline transporter (P23975 whole entry): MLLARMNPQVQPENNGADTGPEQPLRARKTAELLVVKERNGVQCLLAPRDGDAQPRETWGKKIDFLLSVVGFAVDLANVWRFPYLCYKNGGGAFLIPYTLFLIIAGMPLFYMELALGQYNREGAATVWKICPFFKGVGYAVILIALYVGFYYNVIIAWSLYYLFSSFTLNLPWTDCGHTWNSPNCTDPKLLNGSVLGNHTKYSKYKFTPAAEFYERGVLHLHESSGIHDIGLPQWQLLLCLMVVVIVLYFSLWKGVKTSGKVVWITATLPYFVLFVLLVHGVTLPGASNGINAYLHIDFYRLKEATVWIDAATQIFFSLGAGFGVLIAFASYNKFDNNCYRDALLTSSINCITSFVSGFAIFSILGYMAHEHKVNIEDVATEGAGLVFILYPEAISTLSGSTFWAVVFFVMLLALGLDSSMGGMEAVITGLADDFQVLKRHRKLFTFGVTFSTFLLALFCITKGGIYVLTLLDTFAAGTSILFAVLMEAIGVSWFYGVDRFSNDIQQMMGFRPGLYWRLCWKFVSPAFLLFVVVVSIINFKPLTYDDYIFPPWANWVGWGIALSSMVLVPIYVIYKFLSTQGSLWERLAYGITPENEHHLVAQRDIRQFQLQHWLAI
Chain of Kappa-type opioid receptor (P41145 whole entry): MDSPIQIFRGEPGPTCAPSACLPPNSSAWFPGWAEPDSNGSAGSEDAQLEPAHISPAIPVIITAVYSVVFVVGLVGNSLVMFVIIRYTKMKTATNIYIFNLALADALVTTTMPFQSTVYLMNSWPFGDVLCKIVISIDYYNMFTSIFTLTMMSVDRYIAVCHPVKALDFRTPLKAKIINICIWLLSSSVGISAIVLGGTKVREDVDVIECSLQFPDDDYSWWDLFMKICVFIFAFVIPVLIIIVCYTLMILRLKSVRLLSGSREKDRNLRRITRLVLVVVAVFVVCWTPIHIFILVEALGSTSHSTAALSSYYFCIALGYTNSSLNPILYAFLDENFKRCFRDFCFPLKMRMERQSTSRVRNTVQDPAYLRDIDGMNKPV
Chain of Growth hormone secretagogue receptor type 1 (Q92847 whole entry): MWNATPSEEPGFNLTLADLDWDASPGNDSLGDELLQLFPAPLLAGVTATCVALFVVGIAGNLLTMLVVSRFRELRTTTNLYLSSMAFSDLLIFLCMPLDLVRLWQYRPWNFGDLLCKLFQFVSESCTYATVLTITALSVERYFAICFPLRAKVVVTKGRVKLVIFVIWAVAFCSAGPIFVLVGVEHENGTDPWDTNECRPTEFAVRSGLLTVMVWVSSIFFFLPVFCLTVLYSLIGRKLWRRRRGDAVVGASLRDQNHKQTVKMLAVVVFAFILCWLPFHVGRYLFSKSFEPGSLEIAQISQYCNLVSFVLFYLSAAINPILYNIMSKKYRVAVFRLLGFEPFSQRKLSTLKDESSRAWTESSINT
Chain of 5-hydroxytryptamine receptor 2B (P41595 whole entry): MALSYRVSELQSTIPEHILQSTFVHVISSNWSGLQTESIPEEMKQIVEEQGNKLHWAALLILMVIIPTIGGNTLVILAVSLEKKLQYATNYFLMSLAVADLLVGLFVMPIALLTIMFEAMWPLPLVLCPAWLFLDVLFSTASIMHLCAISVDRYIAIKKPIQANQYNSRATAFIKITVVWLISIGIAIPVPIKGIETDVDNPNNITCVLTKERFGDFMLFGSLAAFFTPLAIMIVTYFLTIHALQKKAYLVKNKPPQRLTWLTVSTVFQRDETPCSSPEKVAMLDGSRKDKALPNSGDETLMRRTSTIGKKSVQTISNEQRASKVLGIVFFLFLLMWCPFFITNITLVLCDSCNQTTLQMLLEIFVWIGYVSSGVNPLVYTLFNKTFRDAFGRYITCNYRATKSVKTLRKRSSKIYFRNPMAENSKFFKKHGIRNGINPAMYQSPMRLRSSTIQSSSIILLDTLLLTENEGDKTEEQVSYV

## O=c1[nH]c2ccccc2n1CCCN1CCN(C(c2ccccc2)c2ccccc2)CC1 [OXATOMIDE]
[1]
  AC50: 0.89 µM
Vasopressin V2 receptor
  AC50: > 30 µM
[2]
  AC50: 8.8 µM
[3]
  AC50: > 30 µM
[4]
  AC50: > 30 µM
Glucocorticoid receptor
  AC50: > 30 µM
[5]
  AC50: 13 µM
Progesterone receptor
  AC50: > 30 µM
[6]
  AC50: 3.2 µM
[7]
  AC50: > 30 µM

## C[C@]12C/C(=C/O)C(=O)C[C@@H]1CC[C@@H]1[C@@H]2CC[C@@]2(C)[C@H]1CC[C@]2(C)O [OXYMETHOLONE]
[1]
  AC50: > 30 µM
Vasopressin V2 receptor
  AC50: > 30 µM
[2]
  AC50: > 30 µM
[3]
  AC50: > 30 µM
[4]
  AC50: > 30 µM
Glucocorticoid receptor
  AC50: 21 µM
[5]
  AC50: > 30 µM
Progesterone receptor
  AC50: 23 µM
[6]
  AC50: > 30 µM
[7]
  AC50: > 30 µM

## COc1cc2[nH]c(C)c(CCN3CCN(c4ccccc4)CC3)c2cc1OC [OXYPERTINE]
[1]
  AC50: 1.4 µM
Vasopressin V2 receptor
  AC50: > 30 µM
[2]
  AC50: > 30 µM
[3]
  AC50: > 30 µM
[4]
  AC50: > 30 µM
Glucocorticoid receptor
  AC50: > 30 µM
[5]
  AC50: > 30 µM
Progesterone receptor
  AC50: > 30 µM
[6]
  AC50: 14 µM
[7]
  AC50: > 30 µM

## NC(=O)NC(=O)Cc1ccccc1 [PHENACEMIDE]
[1]
  AC50: > 10 µM
Vasopressin V2 receptor
  AC50: > 10 µM
[2]
  AC50: > 10 µM
[3]
  AC50: > 10 µM
[4]
  AC50: > 10 µM
Glucocorticoid receptor
  AC50: > 10 µM
[5]
  AC50: > 10 µM
Progesterone receptor
  AC50: > 10 µM
[6]
  AC50: > 10 µM
[7]
  AC50: > 30 µM

## c1ccc(C2(N3CCCCC3)CCCCC2)cc1 [PHENCYCLIDINE]
[1]
  AC50: > 30 µM
Vasopressin V2 receptor
  AC50: > 30 µM
[2]
  AC50: > 30 µM
[3]
  AC50: > 30 µM
[4]
  AC50: > 30 µM
Glucocorticoid receptor
  AC50: > 30 µM
[5]
  AC50: > 30 µM
Progesterone receptor
  AC50: > 30 µM
[6]
  AC50: 12 µM
[7]
  AC50: > 30 µM

## OC[C@H]1O[C@@H](Oc2cc(O)cc(/C=C/c3ccc(O)cc3)c2)[C@H](O)[C@@H](O)[C@@H]1O [PICEID]
[1]
  AC50: > 30 µM
Vasopressin V2 receptor
  AC50: > 30 µM
[2]
  AC50: > 30 µM
[3]
  AC50: > 30 µM
[4]
  AC50: > 30 µM
Glucocorticoid receptor
  AC50: > 30 µM
[5]
  AC50: > 30 µM
Progesterone receptor
  AC50: > 30 µM
[6]
  AC50: > 30 µM
[7]
  AC50: > 30 µM

## O=C1CC[C@@H](C(=O)N2CSC[C@H]2C(=O)O)N1 [PIDOTIMOD] ([pGlu]-[Thz]-OH)
[1]
  AC50: > 30 µM
Vasopressin V2 receptor
  AC50: > 30 µM
[2]
  AC50: > 30 µM
[3]
  AC50: > 30 µM
[4]
  AC50: > 30 µM
Glucocorticoid receptor
  AC50: > 30 µM
[5]
  AC50: > 30 µM
Progesterone receptor
  AC50: > 30 µM
[6]
  AC50: > 30 µM
[7]
  AC50: > 30 µM

## COc1cc(C(=O)OCc2cccc(COC(=O)c3cc(OC)c(OC)c(OC)c3)n2)cc(OC)c1OC [PIROZADIL]
[1]
  AC50: > 30 µM
Vasopressin V2 receptor
  AC50: > 30 µM
[2]
  AC50: > 30 µM
[3]
  AC50: > 30 µM
[4]
  AC50: > 30 µM
Glucocorticoid receptor
  AC50: > 30 µM
[5]
  AC50: > 30 µM
Progesterone receptor
  AC50: > 30 µM
[6]
  AC50: > 30 µM
[7]
  AC50: > 30 µM

## CCCN(CCC)S(=O)(=O)c1ccc(C(=O)O)cc1 [PROBENECID]
[1]
  AC50: > 10 µM
Vasopressin V2 receptor
  AC50: > 10 µM
[2]
  AC50: > 10 µM
[3]
  AC50: > 10 µM
[4]
  AC50: > 10 µM
Glucocorticoid receptor
  AC50: > 10 µM
[5]
  AC50: > 10 µM
Progesterone receptor
  AC50: > 10 µM
[6]
  AC50: > 10 µM
[7]
  AC50: > 30 µM
